From patent US5792761A, “Thrombin inhibitors” (Merck & Co., Inc., priority 1997, dated 1998)
Non-standard residues stand in square brackets, D forms with d. Residues, ends and D or L forms follow the SMILES beside them. *: point of attachment. AFC = O=c1cc(C(F)(F)F)c2ccc(N*)cc2o1; pNA = O=[N+]([O-])c1ccc(N*)cc1; Cbz = O=C(OCc1ccccc1)*; Sar = CNCC(=O)O

What was measured:
[1] = tested on: human thrombin; assay: In vitro assay for determining proteinase inhibition: human thrombin (sar-PR-pna hydrolysis at 405 nm; Z-GPR-afc for potent inhibitors); assay type: biochemical; conditions: 25° C., pH 7.4; chromogenic substrate
Method: (§1) In vitro assay for determining proteinase inhibition
(§2) Assays of human a-thrombin and human trypsin were performed at 25° C. in 0.05M TRIS buffer pH 7.4, 0.15M NaCl, 0.1% PEG. Trypsin assays also contained 1 mM CaCl2.
(§3) In certain studies with potent inhibitors (Ki <10 nM) where the degree of inhibition of thrombin was high, a more sensitive activity assay was employed. […] Concentrations of stock solutions of Z-GPR-afc were determined from measurements of absorbance at 380 nm of the 7-amino-4-trifluoromethyl coumarin produced upon complete hydrolysis of an aliquot of the stock solution by thrombin.
(§4) Activity assays were performed by diluting a stock solution of substrate at least tenfold to a final concentration 0.5 Km into a solution containing enzyme or enzyme equilibrated with inhibitor. Times required to achieve equilibration between enzyme and inhibitor were determined in control experiments. Initial velocities of product formation in the absence (Vo) or presence of inhibitor (Vi) were measured. Assuming competitive inhibition, and that unity is negligible compared Km /[S], […] (where [S], [I], and e respectively represent the total concentrations, of substrate, inhibitor and enzyme), the equilibrium constant (Ki) for dissociation of the inhibitor from the enzyme can be obtained from the dependence of Vo /Vi on [I] shown in equation 1.

[2] = tested on: human trypsin; assay: In vitro assay for determining proteinase inhibition: human trypsin (sar-PR-pna hydrolysis at 405 nm); assay type: biochemical; conditions: 25° C., pH 7.4, 1 mM CaCl2; chromogenic substrate
Method: as §1, §2, §4

[3] = tested on: thrombin; assay: More sensitive thrombin activity assay: hydrolysis of fluorogenic substrate Z-GPR-afc (fluorescence at 500 nm); assay type: biochemical, human; conditions: fluorescence at 500 nm (excitation at 400 nm)
Method: as §2, §3, §4

Km [3]	SMILES	Km [1]	Km [2]
–	CNCC(=O)N1CCC[C@H]1C(=O)N[C@@H](CCCNC(=N)N)C(=O)Nc1ccc([N+](=O)[O-])cc1 [sar-PR-pna, sarcosine-Pro-Arg-p-nitroanilide] (H-[Sar]-Pro-Arg-pNA)	125 µM	59 µM
27 µM	N=C(N)NCCC[C@H](NC(=O)[C@@H]1CCCN1C(=O)CNC(=O)OCc1ccccc1)C(=O)Nc1ccc2c(C(F)(F)F)cc(=O)oc2c1 [Z-GPR-afc, Cbz-Gly-Pro-Arg-7-amino-4-trifluoromethylcoumarin] (Cbz-Gly-Pro-Arg-{AFC})	–	–
